Patent publication US12459922B2 (Gilead Sciences, Inc., priority 2022, dated 2025)

What was measured:
PARP7 = biological target: T1, PARP7 (Homo sapiens, UniProt Q7Z3E1); assay: Probe Displacement Assay for PARP7 (MSD electrochemiluminescent, biotinylated probe RBNO11147); settings: displacement of biotinylated probe RBNO11147 from PARP7 NAD+-binding site; read-out: MSD ProbeDisp PARP7 IC50
T1 sequence (Q7Z3E1 1-657): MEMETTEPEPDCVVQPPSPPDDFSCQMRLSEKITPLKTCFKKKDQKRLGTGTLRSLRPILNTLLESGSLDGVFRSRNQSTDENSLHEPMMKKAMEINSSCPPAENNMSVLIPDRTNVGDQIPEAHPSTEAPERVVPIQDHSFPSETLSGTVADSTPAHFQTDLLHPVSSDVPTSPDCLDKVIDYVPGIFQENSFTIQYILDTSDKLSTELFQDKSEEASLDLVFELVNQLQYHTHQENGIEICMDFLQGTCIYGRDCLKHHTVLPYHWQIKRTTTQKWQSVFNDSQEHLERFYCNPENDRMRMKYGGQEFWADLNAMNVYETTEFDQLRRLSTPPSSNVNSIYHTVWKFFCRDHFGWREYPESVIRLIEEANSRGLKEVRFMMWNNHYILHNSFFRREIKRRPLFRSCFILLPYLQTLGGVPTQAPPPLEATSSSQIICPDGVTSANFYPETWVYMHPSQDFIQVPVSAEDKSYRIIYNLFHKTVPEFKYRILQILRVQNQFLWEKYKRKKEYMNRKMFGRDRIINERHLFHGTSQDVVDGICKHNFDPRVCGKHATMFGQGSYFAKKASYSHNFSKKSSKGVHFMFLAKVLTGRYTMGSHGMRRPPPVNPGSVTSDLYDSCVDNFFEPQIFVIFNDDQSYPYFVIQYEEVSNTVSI
Description: Displacement of a biotinylated probe (RBNO11147; Wigle et al., Cell Chemical Biology, 2020, pp. 877-887) from the PARP7 NAD+-binding site was measured in vitro using a Mesoscale Discovery electrochemiluminescent assay. […] Next, 10 ml of 10 nM PARP7 protein incubated for 1 hour at room temperature with a dose response curve of each test compound in a Greiner LDV polypropylene plate (#781201) is added to the MSD plate containing the immobilized probe. The interaction is allowed to reach equilibrium for 1.5 hours, and then 10 ml of SULFO-TAG labeled anti-GST antibody (Cat #R32AA-1) is added to each well and allowed to incubate for an additional 1.5 hours at room temperature. Finally, 10 ml of MSD read buffer T (4×, Cat. #R92C-1) is added to each well using a Bravo liquid handler to prevent air bubbles in the wells, and the plates are subsequently read in an MSD instrument. Light intensity is then measured to quantify the amount of PARP7 bound to the immobilized probe on the plate.

[1] = tested on: endogenous cellular STAT1 (phosphorylated at Tyr701) in NCI-H1373 cells; assay: Phospho-STAT1 (Tyr701) LANCE Ultra TR-FRET Detection Assay; type: cell-based; settings: Homo sapiens, NCI-H1373, 48 h, phospho-STAT1 (Tyr701) induction, read-out: NH1373 pSTAT1 EC50

Structure (SMILES)	IC50 (PARP7) [nM]	EC50 [1] [nM]
CC[C@@H](CCCn1ccc2cc(-c3ncc(C(F)(F)F)cn3)c(F)cc2c1=O)Nc1cn[nH]c(=O)c1C(F)(F)F [Example 37, 7-fluoro-2-[(4S)-4-[[6-oxo-5-(trifluoromethyl)-1H-pyridazin-4-yl]amino]hexyl]-6-[5-(trifluoromethyl)pyrimidin-2-yl]isoquinolin-1-one]	0.4	42.7
O=c1[nH]ncc(N[C@H](CCCn2ccc3cc(-c4ncc(C(F)F)cn4)c(F)cc3c2=O)COC(F)F)c1C(F)(F)F [Example 377, (R)-2-(5-(difluoromethoxy)-4-((6-oxo-5-(trifluoromethyl)-1,6-dihydropyridazin-4-yl)amino)pentyl)-6-(5-(difluoromethyl)pyrimidin-2-yl)-7-fluoroisoquinolin-1(2H)-one]	0.179	1.15
C[C@@H](CCCn1ccc2cc(-c3ncc(C(F)F)cn3)c(F)c(F)c2c1=O)Nc1cn[nH]c(=O)c1C(F)(F)F [Example 53, (S)-6-(5-(difluoromethyl)pyrimidin-2-yl)-7,8-difluoro-2-(4-((6-oxo-5-(trifluoromethyl)-1,6-dihydropyridazin-4-yl)amino)pentyl)isoquinolin-1(2H)-one]	0.496	17
C[C@@H](CCCn1ccc2cc(-c3ncc(C(F)(F)F)cn3)c(Cl)cc2c1=O)Nc1cn[nH]c(=O)c1C(F)(F)F [Example 44, 7-chloro-2-[(4S)-4-[[6-oxo-5-(trifluoromethyl)-1H-pyridazin-4-yl]amino]pentyl]-6-[5-(trifluoromethyl)pyrimidin-2-yl]isoquinolin-1-one]	0.67	10000
Nc1nc(-c2cc3ccn(CCC[C@H](COC(F)F)Nc4cn[nH]c(=O)c4C(F)(F)F)c(=O)c3cc2F)ncc1Cl [Example 378, (R)-6-(4-amino-5-chloropyrimidin-2-yl)-2-(5-(difluoromethoxy)-4-((6-oxo-5-(trifluoromethyl)-1,6-dihydropyridazin-4-yl)amino)pentyl)-7-fluoroisoquinolin-1(2H)-one]	0.255	2.45
C[C@@H](CCCn1ccc2cc(-c3nc4ccccc4s3)c(F)cc2c1=O)Nc1cn[nH]c(=O)c1C(F)(F)F [Example 308, (S)-6-(benzo[d]thiazol-2-yl)-7-fluoro-2-(4-((6-oxo-5-(trifluoromethyl)-1,6-dihydropyridazin-4-yl)amino)pentyl)isoquinolin-1(2H)-one]	0.387	35.8
C[C@@H](CCCn1ccc2cc(-c3cccc4c3OCC4)c(F)cc2c1=O)Nc1cn[nH]c(=O)c1C(F)(F)F [Example 26, (S)-6-(2,3-dihydrobenzofuran-7-yl)-7-fluoro-2-(4-((6-oxo-5-(trifluoromethyl)-1,6-dihydropyridazin-4-yl)amino)pentyl)isoquinolin-1(2H)-one]	0.4	10000
O=c1[nH]ncc(N[C@@H](CO)CCCn2ccc3cc(-c4ncc(C(F)(F)F)cn4)c(F)c(F)c3c2=O)c1C(F)(F)F [Example 163, 7,8-difluoro-2-[(4R)-5-hydroxy-4-[[6-oxo-5-(trifluoromethyl)-1H-pyridazin-4-yl]amino]pentyl]-6-[5-(trifluoromethyl)pyrimidin-2-yl]isoquinolin-1-one]	0.341	62.8
C[C@@H](CCCn1ccc2cc(-c3ccc(C#N)cn3)c(F)cc2c1=O)Nc1cn[nH]c(=O)c1C(F)(F)F [Example 25, (S)-6-(7-fluoro-1-oxo-2-(4-((6-oxo-5-(trifluoromethyl)-1,6-dihydropyridazin-4-yl)amino)pentyl)-1,2-dihydroisoquinolin-6-yl)nicotinonitrile]	0.6	136
C[C@@H](CCCn1ccc2cc(-c3ccc(F)cn3)cc(F)c2c1=O)Nc1cn[nH]c(=O)c1C(F)(F)F [Example 19, (S)-8-fluoro-6-(5-fluoropyridin-2-yl)-2-(4-((6-oxo-5-(trifluoromethyl)-1,6-dihydropyridazin-4-yl)amino)pentyl)isoquinolin-1(2H)-one]	0.3	74.1
C[C@@H](CCCn1ccc2cc(-c3ncc(OC(F)F)cn3)c(F)cc2c1=O)Nc1cn[nH]c(=O)c1C(F)(F)F [Example 42, 6-[5-(difluoromethoxy)pyrimidin-2-yl]-7-fluoro-2-[(4S)-4-[[6-oxo-5-(trifluoromethyl)-1H-pyridazin-4-yl]amino]pentyl]isoquinolin-1-one]	1	133
C[C@@H](CCCn1cnc2cc(-c3ncc(C(F)(F)F)c(N4CC(C#N)C4)n3)c(F)cc2c1=O)Nc1cn[nH]c(=O)c1C(F)(F)F [Example 206]	0.188	9.34
CC(=O)c1c(N[C@@H](C)CCCn2ccc3cc(-c4ncc(C(F)(F)F)cn4)c(F)cc3c2=O)cn[nH]c1=O [Example 16, (S)-2-(4-((5-acetyl-6-oxo-1,6-dihydropyridazin-4-yl)amino)pentyl)-7-fluoro-6-(5-(trifluoromethyl)pyrimidin-2-yl)isoquinolin-1(2H)-one]	0.2	25.2
O=c1[nH]ncc(N2C[C@H]3C[C@H]3[C@H]2CCCn2ccc3cc(-c4ccc(C(F)(F)F)cn4)cc(F)c3c2=O)c1C(F)(F)F [Example 48, 8-fluoro-2-[3-[(1R,2R,5S)-3-[6-oxo-5-(trifluoromethyl)-1H-pyridazin-4-yl]-3-azabicyclo[3.1.0]hexan-2-yl]propyl]-6-[5-(trifluoromethyl)-2-pyridyl]isoquinolin-1-one]	0.897	338
CC(=O)c1c(N[C@@H](C)CCCn2ccc3cc(-c4ncc(C(F)(F)F)cn4)ccc3c2=O)cn[nH]c1=O [Example 15, 2-[(4S)-4-[(5-acetyl-6-oxo-1H-pyridazin-4-yl)amino]pentyl]-6-[5-(trifluoromethyl)pyrimidin-2-yl]isoquinolin-1-one]	0.3	576
C[C@@H](CCCn1ccc2cc(-c3ncc(C(F)(F)F)cn3)cnc2c1=O)Nc1cn[nH]c(=O)c1C(F)(F)F [Example 12, 7-[(4S)-4-[[6-oxo-5-(trifluoromethyl)-1H-pyridazin-4-yl]amino]pentyl]-3-[5-(trifluoromethyl)pyrimidin-2-yl]-1,7-naphthyridin-8-one]	23	10000
O=c1[nH]ncc(N[C@H](CCCn2ccc3cc(-c4ncc(C(F)(F)F)cn4)c(F)cc3c2=O)COC(F)F)c1C(F)(F)F [Example 168, 2-[(4R)-5-(difluoromethoxy)-4-[[6-oxo-5-(trifluoromethyl)-1H-pyridazin-4-yl]amino]pentyl]-7-fluoro-6-[5-(trifluoromethyl)pyrimidin-2-yl]isoquinolin-1-one]	0.256	1.32
C[C@@H](CCCn1ccc2c(F)c(-c3ccc(C(F)(F)F)cn3)ccc2c1=O)Nc1cn[nH]c(=O)c1C(F)(F)F [Example 10, 5-fluoro-2-[(4S)-4-[[6-oxo-5-(trifluoromethyl)-1H-pyridazin-4-yl]amino]pentyl]-6-[5-(trifluoromethyl)-2-pyridyl]isoquinolin-1-one]	0.7	291
Cc1cn(CCC[C@H](C)Nc2cn[nH]c(=O)c2C(F)(F)F)c(=O)c2ccc(-c3ncc(C(F)(F)F)cn3)cc12 [Example 46, 4-methyl-2-[(4S)-4-[[6-oxo-5-(trifluoromethyl)-1H-pyridazin-4-yl]amino]pentyl]-6-[5-(trifluoromethyl)pyrimidin-2-yl]isoquinolin-1-one]	0.824	432
C[C@@H](CCCn1ccc2cc(-c3ncc(C(F)F)c(N)n3)c(F)cc2c1=O)Nc1cn[nH]c(=O)c1C(F)(F)F [Example 104, 6-[4-amino-5-(difluoromethyl)pyrimidin-2-yl]-7-fluoro-2-[(4S)-4-[[6-oxo-5-(trifluoromethyl)-1H-pyridazin-4-yl]amino]pentyl]isoquinolin-1-one]	0.33	4.6
O=c1[nH]ncc(NC2(CCCn3ccc4cc(-c5ncc(C(F)(F)F)cn5)c(F)cc4c3=O)CC2)c1C(F)(F)F [Example 61, 7-fluoro-2-(3-(1-((6-oxo-5-(trifluoromethyl)-1,6-dihydropyridazin-4-yl)amino)cyclopropyl)propyl)-6-(5-(trifluoromethyl)pyrimidin-2-yl)isoquinolin-1(2H)-one]	1.27	638
Nc1nc(-c2cc3ccn(CCC[C@H](COC(F)F)Nc4cn[nH]c(=O)c4C(F)(F)F)c(=O)c3cc2F)ccc1C(F)(F)F [Example 380, (R)-6-(6-amino-5-(trifluoromethyl)pyridin-2-yl)-2-(5-(difluoromethoxy)-4-((6-oxo-5-(trifluoromethyl)-1,6-dihydropyridazin-4-yl)amino)pentyl)-7-fluoroisoquinolin-1(2H)-one]	0.211	4.88
C[C@@H](CCCn1ccc2cc(-c3ccc(C(F)(F)F)cn3)c(F)c(F)c2c1=O)Nc1cn[nH]c(=O)c1C(F)(F)F [Example 55, (S)-7,8-difluoro-2-(4-((6-oxo-5-(trifluoromethyl)-1,6-dihydropyridazin-4-yl)amino)pentyl)-6-(5-(trifluoromethyl)pyridin-2-yl)isoquinolin-1(2H)-one]	0.692	39.1
